According to ChEMBL document CHEMBL1151580, “Synthesis and antibacterial activity of some C-3-lactonyl substituted cephalosporins” (1993):

What was measured:
[1] = system: Haemophilus influenzae; assay: Minimum inhibitory concentration required for antibacterial activity against Haemophilus influenzae Q1; format: functional
[2] = system: Staphylococcus aureus; assay: Minimum inhibitory concentration required for antibacterial activity against Staphylococcus aureus Oxford
[3] = system: Morganella morganii; assay: Minimum inhibitory concentration required for antibacterial activity against Morg. morganii T361; format: functional
[4] = system: Proteus mirabilis; assay: Minimum inhibitory concentration required for antibacterial activity against Pr. mirabilis C977; format: functional
[5] = system: Staphylococcus epidermidis; assay: Minimum inhibitory concentration required for antibacterial activity against Staphylococcus epidermidis PHLN 20; format: functional
[6] = system: Enterococcus faecalis; assay: Minimum inhibitory concentration required for antibacterial activity against Ent. faecalis I; format: functional
[7] = system: Streptococcus pneumoniae; assay: Minimum inhibitory concentration required for antibacterial activity against Streptococcus pneumoniae 1761; format: functional
[8] = system: Escherichia coli; assay: Minimum inhibitory concentration required for antibacterial activity against Escherichia coli 1077; format: functional
[9] = system: Streptococcus pyogenes; assay: Minimum inhibitory concentration required for antibacterial activity against Streptococcus pyogenes CN 10; format: functional
[10] = system: Escherichia coli; assay: Minimum inhibitory concentration required for antibacterial activity against Escherichia coli 10418; format: functional
[11] = system: Klebsiella pneumoniae; assay: Minimum inhibitory concentration required for antibacterial activity against Klebsiella pneumoniae T767; format: functional
[12] = system: Streptococcus agalactiae; assay: Minimum inhibitory concentration required for antibacterial activity against Streptococcus agalactiae 2798; format: functional
[13] = system: Escherichia coli; assay: Minimum inhibitory concentration required for antibacterial activity against Escherichia coli ESS; format: functional
[14] = system: Moraxella catarrhalis; assay: Minimum inhibitory concentration required for antibacterial activity against Moraxella catarrhalis Ravasio; format: functional
[15] = system: Staphylococcus aureus; assay: Minimum inhibitory concentration required for antibacterial activity against Staphylococcus aureus Russell
[16] = system: Streptococcus pneumoniae; assay: Minimum inhibitory concentration required for antibacterial activity against Streptococcus pneumoniae PU 7; format: functional
[17] = system: Pseudomonas aeruginosa; assay: Minimum inhibitory concentration required for antibacterial activity against Pseudomonas aeruginosa 10662; format: functional
[18] = system: Escherichia coli; assay: Minimum inhibitory concentration required for antibacterial activity against Escherichia coli JT425; format: functional
[19] = system: Haemophilus influenzae; assay: Minimum inhibitory concentration required for antibacterial activity against Haemophilus influenzae NEMC1; format: functional
[20] = system: Staphylococcus aureus; assay: Minimum inhibitory concentration required for antibacterial activity against Staphylococcus aureus MB9; format: functional
[21] = system: Staphylococcus aureus; assay: Minimum inhibitory concentration required for antibacterial activity against Staphylococcus aureus Oxford; format: functional
[22] = system: Staphylococcus aureus; assay: Minimum inhibitory concentration required for antibacterial activity against Staphylococcus aureus Russell; format: functional

Compound	MIC [1] [µg/mL]	MIC [3] [µg/mL]	MIC [4] [µg/mL]	MIC [5] [µg/mL]	MIC [6] [µg/mL]	MIC [7] [µg/mL]	MIC [8] [µg/mL]	MIC [9] [µg/mL]	MIC [10] [µg/mL]	MIC [11] [µg/mL]	MIC [12] [µg/mL]	MIC [13] [µg/mL]	MIC [14] [µg/mL]	MIC [16] [µg/mL]	MIC [17] [µg/mL]	MIC [18] [µg/mL]	MIC [19] [µg/mL]	MIC [20] [µg/mL]	MIC [21] [µg/mL]	MIC [22] [µg/mL]	other results
CO/N=C(\C(=O)N[C@@H]1C(=O)N2C(C(=O)[O-])=C(/C=C3\C=C(C)C(=O)O3)CS[C@H]12)c1csc(N)n1.[Na+]	< 0.03	< 0.06	0.06	2	16	< 0.03	1	< 0.03	< 0.03	1	< 0.03	< 0.03	8	0.5	32	2	< 0.03	4			MIC [2]: 1 µg/mL; MIC [15]: 2 µg/mL
CO/N=C(\C(=O)N[C@@H]1C(=O)N2C(C(=O)[O-])=C(CC3C=CC(=O)O3)CS[C@H]12)c1csc(N)n1.[Na+] (stereo not given in full)	0.06	0.5	0.25	4	> 64	< 0.03	0.5	< 0.03	0.06	0.5	0.06	< 0.03	0.5	4	> 64	4	< 0.03	4	1	1	
CO/N=C(\C(=O)N[C@@H]1C(=O)N2C(C(=O)[O-])=C(C3CCC(=O)O3)CS[C@H]12)c1csc(N)n1.[Na+] (stereo not given in full)	0.06	0.06	< 0.03	0.5	> 64	< 0.03	0.12	< 0.03	< 0.03	0.06	0.06	< 0.03	2	2	64	1	< 0.03	2	1	1	
CO/N=C(\C(=O)N[C@@H]1C(=O)N2C(C(=O)[O-])=C(COC(C)=O)CS[C@H]12)c1csc(N)n1.[Na+] [CEFOTAXIME SODIUM]	< 0.03	2	< 0.03	1	> 64	< 0.03	< 0.03	< 0.03	< 0.03	0.06	0.12	< 0.03	0.25	2	16	0.5	< 0.03	4	2	2	
